# Measurements reported in patent publication US10143666B2, “Small molecule inhibitors targeting CAG-repeat RNA toxicity in polyglutamine diseases” (The Chinese University of Hong Kong, priority 2015, dated 2018).
# Values joined by “and” are separate entries in the source; they are usually repeats but may differ in a detail not shown here. Identical values can stand only once.
# Legend:
# DsRedCAG100 fly = test: Pseudopupil assay in DsRedCAG100 fly (expanded CAG-repeat RNA toxicity); format: in vivo, Drosophila; conditions: 12 day-old adult flies
# Excerpt: The synthesis of DB213 was described in Marcheschi et al. (Scheme 1)^12, see FIG. 1. By using a MJD (one kind of polyQ diseases) Drosophila disease model, the inventors established an effective screening platform to test a series of synthesized small molecules for their activity to suppress polyQ-induced neurodegeneration. […] To test whether the compounds acted on CAG-repeat RNA level, another Drosophila model, DsRedCAG100^6, was employed. […] Therefore, DB213 was confirmed to modulate expanded CAG-repeat RNA-mediated toxicity in vivo.
# Flies were raised at 21.5° C. on cornmeal medium supplemented with dry yeast. Pseudopupil assay was performed on 12 day-old adult flies as mentioned previously^18. Images were captured by SPOT Insight CCD camera controlled by the SPOT Advanced software (Diagnostic instruments Inc.). External eye assay was performed on 12 day-old adult flies by Olympus SZX-12 stereomicroscope. Eye images were captured using a SPOT Insight CCD camera (Diagnostic instruments Inc.).
# [1] = test system: pre-45s rRNA in EGFPCAG78 RNA expressing SK-N-MC cells; test: pre-45s rRNA real-time PCR, EGFPCAG78 RNA expressing SK-N-MC cells; format: cell-based, human
# Procedure: (§1) Nucleolar stress and a chain of downstream events were triggered and ultimately led to apoptosis^7.
# (§2) RNA was extracted from cells by Trizol reagent (Life Technologies), and 1 μg of purified RNA was then used for reverse-transcription using the ImPromII™ Reverse Transcription System (Promega). Random hexamer (Roche) was used as primers in reverse transcription. Taqman gene expression assays were performed on an ABI 7500 Real-time PCR system and data were analyzed as previously described^7. The following probes were used: pre-45s rRNA (Assay ID: AILJIZM) and actin (Assay ID: Hs99999903_m1).
# [2] = test system: pre-45s rRNA in EGFPCAG27 RNA expressing cell; test: pre-45s rRNA real-time PCR, EGFPCAG27 RNA expressing cells; format: cell-based, human
# Procedure: as §1, §2
# R6/2 Huntington's mice [3] = test: Open field test in R6/2 mice; format: in vivo
# Procedure: (§3) The body weights were measured daily.
# Open field test was performed at baseline, and on day 7. The mice were brought to the experimental room for at least 1 h acclimation to the experimental room conditions prior to testing. Activity chambers (Med Associates Inc, St Albans, Vt.; 27×27×20.3 cm) were equipped with IR beams. Mice were placed in the center of the chamber and their behavior was recorded for 30 min in 5-minute bins. Quantitative analysis was performed on the following five dependent measures: total locomotion, locomotion in the center of the open field, rearing rate in the center, total rearing frequency and velocity. Animals were tested at low-stress conditions where the light was lowered to approximately 10-30 lux of red light.
# R6/2 Huntington's mice [4] = test: Neurological index scoring in R6/2 mice; format: in vivo
# Procedure: as §3
# The following 30 behaviors were evaluated: Head Tremor, Head Twitch, Head Bobbing, Head Searching, Body Tremor, Body Twitch, Tail Tremor, Tail Twitch, Straub Tail, Piloerection, Shallow Respiration, Flattened Body Posture, Swollen Face, Ptosis, Irritability, Seizure, Urine Staining, Lacrimation, Salivation, Limb Splay, Catalepsy, Abnormal Gait, Tip Toe Walking, Slow Careful Movements, Excessive Grooming, Circling, Sniffing, and Chewing. In addition to the above occurrences the chronic observational phase included excessive locomotor activity, loss of startle response, loss of righting reflex, dehydration and tail pinch. The assessment was performed as follows: A score of 0 was assigned for normal features (such as locomotor activity) or for the absence of abnormal features (such as absence of piloerection); a score of 1 was given when mild abnormalities were observed; and a score of 2-3 was given when severe abnormalities were observed. All of these features were scored from simple observation of the mice in their cage, except for the startle, tail pinch and righting reflexes which were direct manipulations. To test the startle reflex, a small hand clicker was used to generate a loud popping noise and the following behaviors were identified during this process: jumping, freezing, and rapid eye blinks. For the righting reflex, each mouse was then removed from its home cage and placed on its back allowing the mouse to correct itself. Tail pinch was tested by gently squeezing the end of the tail with forceps.
# [5] = mouse, in vivo, iv, 50 mg/kg
# Procedure: Body temperature was measured from rectum on day 1 (baseline), and on days 3, 5 and 7.
# Body temperature was measured from rectum on day 1 (baseline) and on days 3, 5 and 7.
# CUG-repeat RNA = conditions: reported previously; cited from earlier work
# Body weight in R6/2 mice = conditions: for Body weight (individual mouse): in g (unit assumed); for Body weight, differences between treatment groups: any time point, p>0.05
compound,measurement,setting,value
CN(C)CCCNC(=N)c1ccc(C(=N)NCCCN(C)C)cc1.Cl.Cl.Cl.Cl [DB213],Suppression of DsRedCAG100 RNA-mediated toxicity (neurodegeneration),DsRedCAG100 fly,suppressed the DsRedCAG100 RNA-mediated toxicity in a dose-dependent manner
same,pre-45s rRNA transcription level,[1],could restore the pre-45s rRNA transcription level
same,pre-45s rRNA transcription level,[2],did not alter the pre-45s rRNA transcription level
same,Movement activity in open field test,R6/2 Huntington's mice [3]; day 7 post-dosing,no effect on movement activity
same,"Open field distance, rearings, distance in center, rearings in center or velocity, differences between treatment groups","R6/2 Huntington's mice [3]; i.n. dosing, day 7",no differences
same,"Open field distance, rearings, distance in center, rearings in center or velocity, differences between treatment groups","R6/2 Huntington's mice [3]; i.v. dosing, baseline or day 7",no differences
same,Mean neurological index score of all parameters vs vehicle,"R6/2 Huntington's mice [4]; i.n. 300 mg/kg, day 3, p<0.05",significantly higher mean score
same,"Neurological index score, differences between treatment groups",R6/2 Huntington's mice [4]; i.v. dosing,no differences in neurological index score
same,Neurological index score,R6/2 Huntington's mice [4]; intranasal dosing,increased neurological index score
same,Body temperature (group Mean),[5],37.5
same,Binding to CUG repeats / CUG-repeat RNA,CUG-repeat RNA,did not bind to CUG repeats
same,Body weight (individual mouse),"Body weight in R6/2 mice; i.n. daily 50 mg/kg, Day 1, listed as Compound-5, 50 mg/kg",20.9 and 20 and 23.9
same,Body weight (group Mean),"Body weight in R6/2 mice; i.n. daily 50 mg/kg, Day 2",21.1 g
same,Body weight (individual mouse),"Body weight in R6/2 mice; i.n. daily 50 mg/kg, Day 2, listed as Compound-5, 50 mg/kg",20.6 and 17.9 and 17.5 and 25.3
same,Body weight (individual mouse),"Body weight in R6/2 mice; i.n. daily 50 mg/kg, Day 3, listed as Compound-5, 50 mg/kg",21.1 and 24 and 26.3
same,Body weight (group Mean),"Body weight in R6/2 mice; i.n. daily 50 mg/kg, Day 4",22 g
same,Body weight (individual mouse),"Body weight in R6/2 mice; i.n. daily 50 mg/kg, Day 4, listed as Compound-5, 50 mg/kg",20.1 and 26.3
same,Body weight (individual mouse),"Body weight in R6/2 mice; i.n. daily 50 mg/kg, Day 5, listed as Compound-5, 50 mg/kg",19.9 and 17.4 and 23.6 and 20.7 and 25.6
same,Body weight (group Mean),"Body weight in R6/2 mice; i.n. daily 50 mg/kg, Day 6",21.5 g
same,Body weight (individual mouse),"Body weight in R6/2 mice; i.n. daily 50 mg/kg, Day 6, listed as Compound-5, 50 mg/kg",19.9 and 17.6 and 21.5 and 25
same,Body weight (individual mouse),"Body weight in R6/2 mice; i.n. daily 50 mg/kg, Day 7, listed as Compound-5, 50 mg/kg",20.4 and 17.9 and 23.5 and 21.5 and 26.3
same,Body weight (individual mouse),"Body weight in R6/2 mice; i.n. daily 100 mg/kg, Day 1, listed as Compound-5, 100 mg/kg",19 and 20.6 and 23.5 and 23.2 and 23.7
same,Body weight (group Mean),"Body weight in R6/2 mice; i.n. daily 100 mg/kg, Day 2",21 g
same,Body weight (individual mouse),"Body weight in R6/2 mice; i.n. daily 100 mg/kg, Day 2, listed as Compound-5, 100 mg/kg",20.3 and 19.2 and 23.2 and 20.7 and 23.6
same,Body weight (individual mouse),"Body weight in R6/2 mice; i.n. daily 100 mg/kg, Day 3, listed as Compound-5, 100 mg/kg",19.3 and 20.7 and 19.8 and 23.9 and 21.1
same,Body weight (group Mean),"Body weight in R6/2 mice; i.n. daily 100 mg/kg, Day 4",21.6 g
same,Body weight (individual mouse),"Body weight in R6/2 mice; i.n. daily 100 mg/kg, Day 4, listed as Compound-5, 100 mg/kg",19.4 and 19.8 and 24 and 21.1 and 24.4
same,Body weight (individual mouse),"Body weight in R6/2 mice; i.n. daily 100 mg/kg, Day 5, listed as Compound-5, 100 mg/kg",20.6 and 19.4 and 23.6 and 20.7 and 23.9
same,Body weight (group Mean),"Body weight in R6/2 mice; i.n. daily 100 mg/kg, Day 6",21.5 g
same,Body weight (individual mouse),"Body weight in R6/2 mice; i.n. daily 100 mg/kg, Day 6, listed as Compound-5, 100 mg/kg",19.8 and 23.6 and 21.1 and 24
same,Body weight (group Mean),"Body weight in R6/2 mice; i.n. daily 100 mg/kg, Day 7",21.1 g
same,Body weight (individual mouse),"Body weight in R6/2 mice; i.n. daily 100 mg/kg, Day 7, listed as Compound-5, 100 mg/kg",19 and 19.4 and 24.7
same,Body weight (group Mean),"Body weight in R6/2 mice; i.n. daily 200 mg/kg, Day 1",20.9 g
same,Body weight (individual mouse),"Body weight in R6/2 mice; i.n. daily 200 mg/kg, Day 1, listed as Compound-5, 200 mg/kg",19.9 and 23.6
same,Body weight (individual mouse),"Body weight in R6/2 mice; i.n. daily 200 mg/kg, Day 2, listed as Compound-5, 200 mg/kg",23.5
same,Body weight (group Mean),"Body weight in R6/2 mice; i.n. daily 200 mg/kg, Day 3",20.4 g
same,Body weight (individual mouse),"Body weight in R6/2 mice; i.n. daily 200 mg/kg, Day 3, listed as Compound-5, 200 mg/kg",18.3 and 19.2 and 21.5
same,Body weight (individual mouse),"Body weight in R6/2 mice; i.n. daily 200 mg/kg, Day 4, listed as Compound-5, 200 mg/kg",17.9 and 19
same,Body weight (group Mean),"Body weight in R6/2 mice; i.n. daily 200 mg/kg, Day 5",20.7 g
same,Body weight (individual mouse),"Body weight in R6/2 mice; i.n. daily 200 mg/kg, Day 5, listed as Compound-5, 200 mg/kg",18.2 and 18.3 and 22.7
same,Body weight (individual mouse),"Body weight in R6/2 mice; i.n. daily 200 mg/kg, Day 6, listed as Compound-5, 200 mg/kg",18.4 and 23.1
same,Body weight (group Mean),"Body weight in R6/2 mice; i.n. daily 200 mg/kg, Day 7",20.4 g
same,Body weight (group Mean),"Body weight in R6/2 mice; i.n. daily 300 mg/kg, Day 1",21.6 g
same,Body weight (group Mean),"Body weight in R6/2 mice; i.n. daily 300 mg/kg, Day 2",20.2 g
same,Body weight (group Mean),"Body weight in R6/2 mice; i.n. daily 300 mg/kg, Day 3",19.5 g
same,Body weight (group Mean),"Body weight in R6/2 mice; i.n. daily 300 mg/kg, Day 6",20.1 g
same,Body weight (group Mean),"Body weight in R6/2 mice; i.n. daily 300 mg/kg, Day 7",20.4 g
same,"Body weight, differences between treatment groups",Body weight in R6/2 mice; i.n. daily 50-300 mg/kg,no differences in body weight
same,Body weight (group Mean),"Body weight in R6/2 mice; i.v. 50 mg/kg (treatment discontinued), Day 2, n 1",16.1 g
same,Body weight (group Mean),"Body weight in R6/2 mice; i.v. 50 mg/kg (treatment discontinued), Day 3, n 1",16.3 g
same,Body weight (group Mean),"Body weight in R6/2 mice; i.v. 50 mg/kg (treatment discontinued), Day 4, n 1",16.2 g
same,Body weight (group Mean),"Body weight in R6/2 mice; i.v. 50 mg/kg (treatment discontinued), Day 5, n 1",16.8 g
same,Body weight (group Mean),"Body weight in R6/2 mice; i.v. 50 mg/kg (treatment discontinued), Day 6 (not measured, replaced by mean of days 5 and 7), n 1",16.8 g
same,Body weight (group Mean),"Body weight in R6/2 mice; i.v. 50 mg/kg (treatment discontinued), Day 7, n 1",16.8 g
same,Body weight (group Mean),"Body weight in R6/2 mice; i.v. twice-a-week 12.5 mg/kg, Day 3",22 g
same,Body weight (group Mean),"Body weight in R6/2 mice; i.v. twice-a-week 12.5 mg/kg, Day 4",22 g
same,Body weight (group Mean),"Body weight in R6/2 mice; i.v. twice-a-week 12.5 mg/kg, Day 6 (not measured, replaced by mean of days 5 and 7)",22.4 g
same,Body weight (group Mean),"Body weight in R6/2 mice; i.v. twice-a-week 12.5 mg/kg, Day 7",22.6 g
same,Body weight (group Mean),"Body weight in R6/2 mice; i.v. twice-a-week 25 mg/kg, Day 2",21 g
same,Body weight (group Mean),"Body weight in R6/2 mice; i.v. twice-a-week 25 mg/kg, Day 3",21.6 g
same,Body weight (group Mean),"Body weight in R6/2 mice; i.v. twice-a-week 25 mg/kg, Day 4",21.6 g
same,Body weight (group Mean),"Body weight in R6/2 mice; i.v. twice-a-week 25 mg/kg, Day 7",22 g
same,"Body weight, differences between treatment groups",Body weight in R6/2 mice; i.v. twice-a-week 12.5 and 25 mg/kg,no differences in body weight
